The numbers were not newly measured in patent publication US11512089B2, “Substituted [1,2,4]triazolo[3,4-a]phthalazines as modulators of GABAA receptor activity” (SHANGHAI SIMR BIOTECHNOLOGY CO., LTD, priority 2018, dated 2022), which cites them from elsewhere.

The data set concerns α5-GABAA receptor. The settings on record: cited from earlier work.

Regarding `Cc1cc(-c2nncc3c(C(C)(C)C)c(OCc4ncnn4C)nn23)no1` [MRK016, 3-tert-butyl-7-(5-methylisoxazol-3-yl)-2-(1-methyl-1H-1,2,4-triazol-5-ylmethoxy)pyrazolo[1,5-d][1,2,4]triazine], the “block of the binding of (^3H)R0-15-1788 in brain” value is listed as “efficiently block”.
